Results on 18 compounds are retold here after patent publication US20230322761A1, “DEGRADATION OF BRUTON'S TYROSINE KINASE (BTK) BY CONJUGATION OF BTK INHIBITORS WITH E3 LIGASE LIGAND AND METHODS OF USE” (BEIGENE, LTD., priority 2020, published 2023).

In this assay the target is T1, BTK (Homo sapiens, UniProt Q06187).
T1 construct: endogenous in cells; host or cells: TMD-8 cells
The experiment in a line: BTK degradation in TMD-8 cells, HTRF assay after 6 h treatment. The format is cell-based. The conditions noted are these: IC50 (DC50) of BTK degradation. The gist of the method: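 TMD-8 cells treated for 6 h with 8 compound doses in 6-fold dilution steps from a 1 mM 500× DMSO stock (0.2% DMSO), then lysed 30 min at room temperature. BTK in lysate detected by HTRF (665/620 nm) after overnight antibody incubation; DC50 from four-parameter curve fit.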

T1 sequence (Q06187 whole entry): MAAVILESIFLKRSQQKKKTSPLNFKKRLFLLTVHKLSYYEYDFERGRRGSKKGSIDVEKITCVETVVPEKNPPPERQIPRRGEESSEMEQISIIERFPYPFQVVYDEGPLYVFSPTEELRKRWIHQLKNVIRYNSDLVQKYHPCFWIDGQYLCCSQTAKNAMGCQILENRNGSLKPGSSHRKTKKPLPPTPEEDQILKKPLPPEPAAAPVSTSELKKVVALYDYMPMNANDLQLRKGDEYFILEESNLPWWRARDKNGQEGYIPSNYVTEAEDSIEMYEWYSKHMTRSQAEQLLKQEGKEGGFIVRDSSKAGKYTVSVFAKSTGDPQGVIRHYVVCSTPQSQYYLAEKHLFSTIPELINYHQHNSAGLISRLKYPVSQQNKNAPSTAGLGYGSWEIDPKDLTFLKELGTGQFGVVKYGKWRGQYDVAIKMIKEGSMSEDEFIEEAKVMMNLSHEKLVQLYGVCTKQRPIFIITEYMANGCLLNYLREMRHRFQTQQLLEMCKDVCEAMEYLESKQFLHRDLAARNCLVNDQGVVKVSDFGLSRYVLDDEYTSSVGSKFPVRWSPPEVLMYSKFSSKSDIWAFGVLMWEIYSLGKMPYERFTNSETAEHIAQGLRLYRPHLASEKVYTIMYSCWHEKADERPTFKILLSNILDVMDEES

In general, DC50 refers to the midpoint of the concentration-degradation curve. In the case of `Cc1cc(-c2n[nH]c3ncc(-c4ccc(N5CCN(CCc6ccc([C@H]7CCC(=O)NC7=O)c(F)c6)CC5)cn4)cc23)ccc1[C@@H](C)NC(=O)c1noc(C(C)(C)C)n1` [Example 181, 5-(tert-butyl)-N—((R)-1-(4-(5-(5-(4-(4-((R)-2,6-dioxopiperidin-3-yl)-3-fluorophenethyl)piperazin-1-yl)pyridin-2-yl)-1H-pyrazolo[3,4-b]pyridin-3-yl)-2-methylphenyl)ethyl)-1,2,4-oxadiazole-3-carboxamide], the DC50 worked out at 1.24 nM. Compound `Cc1cc(-c2n[nH]c3ncc(-c4ccc(N5CCN(CCc6ccc([C@@H]7CCC(=O)NC7=O)c(F)c6)CC5)cn4)cc23)ccc1[C@@H](C)NC(=O)c1noc(C(C)(C)C)n1` [Example 182, 5-(tert-butyl)-N—((R)-1-(4-(5-(5-(4-(4-((S)-2,6-dioxopiperidin-3-yl)-3-fluorophenethyl)piperazin-1-yl)pyridin-2-yl)-1H-pyrazolo[3,4-b]pyridin-3-yl)-2-methylphenyl)ethyl)-1,2,4-oxadiazole-3-carboxamide] returned a DC50 of 11.8 nM. The figure for `Cc1cc(-c2n[nH]c3ncc(-c4ccc(N5CCC(COc6ccc(C7CCC(=O)NC7=O)cc6)CC5)cc4)cc23)ccc1[C@@H](C)NC(=O)c1noc(C(C)(C)C)n1` (stereo partly drawn) [Example 183, 5-(tert-butyl)-N-((1R)-1-(4-(5-(4-(4-((4-(2,6-dioxopiperidin-3-yl)phenoxy)methyl)piperidin-1-yl)phenyl)-1H-pyrazolo[3,4-b]pyridin-3-yl)-2-methylphenyl)ethyl)-1,2,4-oxadiazole-3-carboxamide] is 19.8 nM; for `Cc1cc(-c2n[nH]c3ncc(-c4ccc(N5CCN(CC6CCN(c7ccc(N8CCC(=O)NC8=O)cc7)CC6)CC5)cc4)cc23)ccc1[C@@H](C)NC(=O)c1noc(C2(CO)CC2)n1` [Example 184, (R)—N-(1-(4-(5-(4-(4-((1-(4-(2,4-dioxotetrahydropyrimidin-1(2H)-yl)phenyl)piperidin-4-yl)methyl)piperazin-1-yl)phenyl)-1H-pyrazolo[3,4-b]pyridin-3-yl)-2-methylphenyl)ethyl)-5-(1-(hydroxymethyl)cyclopropyl)-1,2,4-oxadiazole-3-carboxamide] it is 14 nM; for `Cc1cc(-c2n[nH]c3ncc(-c4ccc(N5CCN(CC6CCN(c7ccc(N8CCC(=O)NC8=O)c(C)c7)CC6)CC5)cc4)cc23)ccc1[C@@H](C)NC(=O)c1noc(C2(CO)CC2)n1` [Example 185, (R)—N-(1-(4-(5-(4-(4-((1-(4-(2,4-dioxotetrahydropyrimidin-1(2H)-yl)-3-methylphenyl)piperidin-4-yl)methyl)piperazin-1-yl)phenyl)-1H-pyrazolo[3,4-b]pyridin-3-yl)-2-methylphenyl)ethyl)-5-(1-(hydroxymethyl)cyclopropyl)-1,2,4-oxadiazole-3-carboxamide] it is 16.2 nM.

Take `Cc1cc(-c2n[nH]c3ncc(-c4ccc(N5CCN(CCn6cc(C7CCC(=O)NC7=O)cn6)CC5)cc4)cc23)ccc1[C@@H](C)NC(=O)c1noc(C(C)(C)C)n1` (stereo partly drawn) [Example 186, 5-(tert-butyl)-N-((1R)-1-(4-(5-(4-(4-(2-(4-(2,6-dioxopiperidin-3-yl)-1H-pyrazol-1-yl)ethyl)piperazin-1-yl)phenyl)-1H-pyrazolo[3,4-b]pyridin-3-yl)-2-methylphenyl)ethyl)-1,2,4-oxadiazole-3-carboxamide]: the DC50 is 1.61 nM. Take `Cc1cc(-c2n[nH]c3ncc(-c4ccc(N5CCC(COc6ccc(N7CCC(=O)NC7=O)cc6)CC5)cc4)cc23)ccc1[C@@H](C)NC(=O)c1noc(C(C)(C)C)n1` [Example 187, (R)-5-(tert-butyl)-N-(1-(4-(5-(4-(4-((4-(2,4-dioxotetrahydropyrimidin-1(2H)-yl)phenoxy)methyl)piperidin-1-yl)phenyl)-1H-pyrazolo[3,4-b]pyridin-3-yl)-2-methylphenyl)ethyl)-1,2,4-oxadiazole-3-carboxamide]: it took 9.56 nM to reach half-maximal degradation (DC50). With `Cc1cc(-c2n[nH]c3ncc(-c4ccc(N5CCN(CC(F)(F)c6ccc(C7CCC(=O)NC7=O)cc6)CC5)cc4)cc23)ccc1[C@@H](C)NC(=O)c1nc(C(C)(C)C)no1` (stereo partly drawn) [Example 188, 3-(tert-butyl)-N-((1R)-1-(4-(5-(4-(4-(2-(4-(2,6-dioxopiperidin-3-yl)phenyl)-2,2-difluoroethyl)piperazin-1-yl)phenyl)-1H-pyrazolo[3,4-b]pyridin-3-yl)-2-methylphenyl)ethyl)-1,2,4-oxadiazole-5-carboxamide] the figure was 9.91 nM; with `Cc1cc(-c2n[nH]c3ncc(-c4ccc(N5CC6CN(CCc7ccc(C8CCC(=O)NC8=O)c(C)n7)CC6C5)cn4)cc23)ccc1[C@@H](C)NC(=O)c1noc(C(C)(C)C)n1` (stereo partly drawn) [Example 189, 5-(tert-butyl)-N-((1R)-1-(4-(5-(5-(5-(2-(5-(2,6-dioxopiperidin-3-yl)-6-methylpyridin-2-yl)ethyl)hexahydropyrrolo[3,4-c]pyrrol-2(1H)-yl)pyridin-2-yl)-1H-pyrazolo[3,4-b]pyridin-3-yl)-2-methylphenyl)ethyl)-1,2,4-oxadiazole-3-carboxamide], 23.6 nM.

The compound `Cc1cc(N2CCC(CN3CCN(c4ccc(-c5cnc6[nH]nc(-c7cc(CO)c([C@@H](C)NC(=O)c8nc(C(C)(C)C)no8)cc7F)c6c5)cc4)CC3)CC2)ccc1N1CCC(=O)NC1=O` [Example 190, (R)-3-(tert-butyl)-N-(1-(4-(5-(4-(4-((1-(4-(2,4-dioxotetrahydropyrimidin-1(2H)-yl)-3-methylphenyl)piperidin-4-yl)methyl)piperazin-1-yl)phenyl)-1H-pyrazolo[3,4-b]pyridin-3-yl)-5-fluoro-2-(hydroxymethyl)phenyl)ethyl)-1,2,4-oxadiazole-5-carboxamide] returned a DC50 of 6.11 nM.

`Cc1cc(-c2n[nH]c3ncc(-c4ccc(N5CCN(CC6CCN(c7ccc(C8CCC(=O)NC8=O)cc7)C6)CC5)cc4)cc23)ccc1[C@@H](C)NC(=O)c1noc(C(C)(C)C)n1` (stereo partly drawn) [Example 191, 5-(tert-butyl)-N-((1R)-1-(4-(5-(4-(4-((1-(4-(2,6-dioxopiperidin-3-yl)phenyl)pyrrolidin-3-yl)methyl)piperazin-1-yl)phenyl)-1H-pyrazolo[3,4-b]pyridin-3-yl)-2-methylphenyl)ethyl)-1,2,4-oxadiazole-3-carboxamide]: half-maximal degradation (DC50) was put at 7.34 nM. `Cc1cc(-c2n[nH]c3ncc(-c4ccc(N5CCN(CC(F)(F)c6ccc(C7CCC(=O)NC7=O)cn6)CC5)cc4)cc23)ccc1[C@@H](C)NC(=O)c1nc(C(C)(C)C)no1` (stereo partly drawn) [Example 192, 3-(tert-butyl)-N-((1R)-1-(4-(5-(4-(4-(2-(5-(2,6-dioxopiperidin-3-yl)pyridin-2-yl)-2,2-difluoroethyl)piperazin-1-yl)phenyl)-1H-pyrazolo[3,4-b]pyridin-3-yl)-2-methylphenyl)ethyl)-1,2,4-oxadiazole-5-carboxamide] came in with a DC50 of 4.03 nM. With `Cc1cc(-c2n[nH]c3ncc(-c4ccc(N5CCN(CC(F)(F)c6ccc(C7CCC(=O)NC7=O)cn6)CC5)cc4)cc23)ccc1[C@@H](C)NC(=O)c1noc(C(C)(C)C)n1` (stereo partly drawn) [Example 193, 5-(tert-butyl)-N-((1R)-1-(4-(5-(4-(4-(2-(5-(2,6-dioxopiperidin-3-yl)pyridin-2-yl)-2,2-difluoroethyl)piperazin-1-yl)phenyl)-1H-pyrazolo[3,4-b]pyridin-3-yl)-2-methylphenyl)ethyl)-1,2,4-oxadiazole-3-carboxamide] the figure was 3.06 nM. As for `Cc1cc(-c2n[nH]c3ncc(-c4ccc(N5CCN(CCc6ccc(N7CCC(=O)NC7=O)cn6)CC5)cc4)cc23)ccc1[C@@H](C)NC(=O)c1noc(C(C)(C)C)n1` [Example 194, (R)-5-(tert-butyl)-N-(1-(4-(5-(4-(4-(2-(5-(2,4-dioxotetrahydropyrimidin-1(2H)-yl)pyridin-2-yl)ethyl)piperazin-1-yl)phenyl)-1H-pyrazolo[3,4-b]pyridin-3-yl)-2-methylphenyl)ethyl)-1,2,4-oxadiazole-3-carboxamide], half-maximal degradation (DC50) was put at 1.69 nM. With `COc1nc(CCN2CCN(c3ccc(-c4cnc5[nH]nc(-c6ccc([C@@H](C)NC(=O)c7nc(C(C)(C)C)no7)c(C)c6)c5c4)cc3)CC2)ccc1C1CCC(=O)NC1=O` (stereo partly drawn) [Example 195, 3-(tert-butyl)-N-((1R)-1-(4-(5-(4-(4-(2-(5-(2,6-dioxopiperidin-3-yl)-6-methoxypyridin-2-yl)ethyl)piperazin-1-yl)phenyl)-1H-pyrazolo[3,4-b]pyridin-3-yl)-2-methylphenyl)ethyl)-1,2,4-oxadiazole-5-carboxamide] the figure was 6.13 nM; with `Cc1cc(-c2n[nH]c3ncc(-c4ccc(N5CCN(CCn6nc(C)c(C7CCC(=O)NC7=O)c6C)CC5)cc4)cc23)ccc1[C@@H](C)NC(=O)c1nc(C(C)(C)C)no1` (stereo partly drawn) [Example 196, 3-(tert-butyl)-N-((1R)-1-(4-(5-(4-(4-(2-(4-(2,6-dioxopiperidin-3-yl)-3,5-dimethyl-1H-pyrazol-1-yl)ethyl)piperazin-1-yl)phenyl)-1H-pyrazolo[3,4-b]pyridin-3-yl)-2-methylphenyl)ethyl)-1,2,4-oxadiazole-5-carboxamide], 1.05 nM. With `Cc1cc(-c2n[nH]c3ncc(-c4ccc(C5CCN(C6CC(c7ccc(C8CCC(=O)NC8=O)cc7)C6)CC5)nc4)cc23)ccc1[C@@H](C)NC(=O)c1noc(C(C)(C)C)n1` (stereo partly drawn) [Example 197, 5-(tert-butyl)-N-((1R)-1-(4-(5-(6-(1-(3-(4-(2,6-dioxopiperidin-3-yl)phenyl)cyclobutyl)piperidin-4-yl)pyridin-3-yl)-1H-pyrazolo[3,4-b]pyridin-3-yl)-2-methylphenyl)ethyl)-1,2,4-oxadiazole-3-carboxamide] the figure was 1.08 nM; with `Cc1cc(-c2n[nH]c3ncc(-c4ccc(N5CCC(COc6ccc(OC7CCC(=O)NC7=O)cc6)CC5)cc4)cc23)ccc1[C@@H](C)NC(=O)c1noc(C(C)(C)C)n1` (stereo partly drawn) [Example 198, 5-(tert-butyl)-N-((1R)-1-(4-(5-(4-(4-((4-((2,6-dioxopiperidin-3-yl)oxy)phenoxy)methyl)piperidin-1-yl)phenyl)-1H-pyrazolo[3,4-b]pyridin-3-yl)-2-methylphenyl)ethyl)-1,2,4-oxadiazole-3-carboxamide], 91.4 nM.
